In the supplement of paper PMC8612539:
≈ marks a conversion by molar mass, not a printed value.

Tested on: Mannheimia haemolytica
Assay: minimum inhibitory concentration (MIC)
Experimental: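 Broth microdilution MIC (Sensititre BOPO7F bovine plate, CLSI methods) of 19 antimicrobials against field isolates of P. multocida, M. haemolytica, H. somni (deep nasopharyngeal swabs) and E. coli, Enterococcus spp. (rectal swabs) from weaned dairy heifers. Incubation 16-24 h at 35 C. MIC is the lowest concentration preventing visible growth. Values with <= or > lie at the tested range limits. Trimethoprim-sulfamethoxazole is given as the trimethoprim component of a 1:19 mixture.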

CS(=O)(=O)c1ccc([C@@H](O)[C@@H](CF)NC(=O)C(Cl)Cl)cc1 [Florfenicol]
Settings	minimum inhibitory concentration [µg/mL]
isolate (source animal id): 8	1 (≈ 2.79 µM)
isolate (source animal id): 13	1 (≈ 2.79 µM)
isolate (source animal id): 18	2 (≈ 5.58 µM)
isolate (source animal id): 21	2 (≈ 5.58 µM)
isolate (source animal id): 25	2 (≈ 5.58 µM)
isolate (source animal id): 27	1 (≈ 2.79 µM)
isolate (source animal id): 28	1 (≈ 2.79 µM)
isolate (source animal id): 30	1 (≈ 2.79 µM)
isolate (source animal id): 31	1 (≈ 2.79 µM)
isolate (source animal id): 32	1 (≈ 2.79 µM)
isolate (source animal id): 34	1 (≈ 2.79 µM)
isolate (source animal id): 36	1 (≈ 2.79 µM)
isolate (source animal id): 37	1 (≈ 2.79 µM)
isolate (source animal id): 40	1 (≈ 2.79 µM)
isolate (source animal id): 41	1 (≈ 2.79 µM)
isolate (source animal id): 43	2 (≈ 5.58 µM)
isolate (source animal id): 46	1 (≈ 2.79 µM)
isolate (source animal id): 49	1 (≈ 2.79 µM)
isolate (source animal id): 50	1 (≈ 2.79 µM)
isolate (source animal id): 51	1 (≈ 2.79 µM)
isolate (source animal id): 52	1 (≈ 2.79 µM)
isolate (source animal id): 53	2 (≈ 5.58 µM)
isolate (source animal id): 55	1 (≈ 2.79 µM)
isolate (source animal id): 56	1 (≈ 2.79 µM)
isolate (source animal id): 57	> 8
isolate (source animal id): 100	2 (≈ 5.58 µM)
isolate (source animal id): 103	1 (≈ 2.79 µM)
isolate (source animal id): 107	2 (≈ 5.58 µM)
isolate (source animal id): 108	2 (≈ 5.58 µM)
isolate (source animal id): 112	> 8
isolate (source animal id): 113	> 8
isolate (source animal id): 121	2 (≈ 5.58 µM)
isolate (source animal id): 122	2 (≈ 5.58 µM)
isolate (source animal id): 123	> 8
isolate (source animal id): 126	> 8
isolate (source animal id): 133	> 8
isolate (source animal id): 135	> 8
isolate (source animal id): 138	> 8
isolate (source animal id): 141	> 8
isolate (source animal id): 142	2 (≈ 5.58 µM)
isolate (source animal id): 145	> 8
isolate (source animal id): 149	0.5 (≈ 1.4 µM)
isolate (source animal id): 151	0.5 (≈ 1.4 µM)
isolate (source animal id): 152	2 (≈ 5.58 µM)
isolate (source animal id): 154	0.5 (≈ 1.4 µM)
isolate (source animal id): 159	> 8
isolate (source animal id): 162	> 8
isolate (source animal id): 170	> 8
isolate (source animal id): 171	1 (≈ 2.79 µM)
isolate (source animal id): 172	> 8
isolate (source animal id): 173	1 (≈ 2.79 µM)
isolate (source animal id): 179	> 8
isolate (source animal id): 180	> 8
isolate (source animal id): 183	> 8
isolate (source animal id): 186	> 8
isolate (source animal id): 187	> 8
isolate (source animal id): 188	> 8
isolate (source animal id): 190	1 (≈ 2.79 µM)
isolate (source animal id): 191	> 8
isolate (source animal id): 192	1 (≈ 2.79 µM)
isolate (source animal id): 201	> 8
isolate (source animal id): 202	1 (≈ 2.79 µM)
isolate (source animal id): 209	1 (≈ 2.79 µM)
isolate (source animal id): 211	> 8
isolate (source animal id): 220	> 8
isolate (source animal id): 221	> 8
isolate (source animal id): 223	> 8
isolate (source animal id): 233	2 (≈ 5.58 µM)
isolate (source animal id): 237	1 (≈ 2.79 µM)
isolate (source animal id): 241	2 (≈ 5.58 µM)
isolate (source animal id): 252	2 (≈ 5.58 µM)
isolate (source animal id): 253	2 (≈ 5.58 µM)
isolate (source animal id): 259	> 8
isolate (source animal id): 260	2 (≈ 5.58 µM)
isolate (source animal id): 262	2 (≈ 5.58 µM)
isolate (source animal id): 282	> 8
isolate (source animal id): 287	2 (≈ 5.58 µM)
isolate (source animal id): 288	0.5 (≈ 1.4 µM)
isolate (source animal id): 291	0.5 (≈ 1.4 µM)
isolate (source animal id): 293	2 (≈ 5.58 µM)
isolate (source animal id): 298	8 (≈ 22.3 µM)
isolate (source animal id): 299	> 8
isolate (source animal id): 300	1 (≈ 2.79 µM)
isolate (source animal id): 302	> 8
isolate (source animal id): 304	8 (≈ 22.3 µM)
isolate (source animal id): 306	0.5 (≈ 1.4 µM)
isolate (source animal id): 308	0.5 (≈ 1.4 µM)
isolate (source animal id): 309	0.5 (≈ 1.4 µM)
isolate (source animal id): 313	2 (≈ 5.58 µM)
isolate (source animal id): 318	1 (≈ 2.79 µM)
isolate (source animal id): 320	1 (≈ 2.79 µM)
isolate (source animal id): 321	2 (≈ 5.58 µM)
isolate (source animal id): 323	> 8
isolate (source animal id): 324	2 (≈ 5.58 µM)
isolate (source animal id): 326	2 (≈ 5.58 µM)
isolate (source animal id): 328	2 (≈ 5.58 µM)
isolate (source animal id): 329	2 (≈ 5.58 µM)
isolate (source animal id): 333	2 (≈ 5.58 µM)
isolate (source animal id): 335	2 (≈ 5.58 µM)
isolate (source animal id): 338	2 (≈ 5.58 µM)
